Measured values: patent US20230210807A1, “USE OF BENZOATE COMPOUND IN TREATMENT OF SARS-COV-2 INFECTIONS” (ACADEMY OF MILITARY MEDICAL SCIENCES, priority 2020, published 2023)
“Also recorded” adds a separate entry of the source.

What was measured:
Vero-E6 cells = test: Cytotoxicity test of drugs (CCK-8 kit); details: 48 hours; for Cell viability (% of vehicle control): Vero-E6 cells
MERS-CoV = details: in vitro, cited from earlier work
SARS-CoV-2 = test: Reduction of viral nucleic acid load in SARS-CoV-2 infected Vero E6 cells (qRT-PCR of supernatant); format: cell-based, SARS-CoV-2 (nCoV-2019BetaCoV/Wuhan/WIV04/2019 strain); details: for Copy number of virus genome: Vero E6 cells, 100TCID50, 48 hours

Question: Which results are given for `N=C(N)c1ccc2cc(OC(=O)c3ccc(N=C(N)N)cc3)ccc2c1` [Nafamostat, 6-amidino-2-naphthyl-4-guanidino benzoate]?
Answer: Cell viability (% of vehicle control) (Vero-E6 cells; 0.14 µM): 103.25±2.53 % of vehicle control; Cell viability (% of vehicle control) (Vero-E6 cells; 0.41 µM): 106.14±1.77 % of vehicle control; Cell viability (% of vehicle control) (Vero-E6 cells; 1.23 µM): 95.85±2.57 % of vehicle control; Cell viability (% of vehicle control) (Vero-E6 cells; 3.70 µM): 94.88±4.44 % of vehicle control; Cell viability (% of vehicle control) (Vero-E6 cells; 11.11 µM): 93.68±1.83 % of vehicle control; Cell viability (% of vehicle control) (Vero-E6 cells; 33.33 µM): 92.64±2.16 % of vehicle control; Cell viability (% of vehicle control) (Vero-E6 cells; 100 µM): 92.65±3.37 % of vehicle control; Cytotoxicity (in words) (Vero-E6 cells; all test concentrations, Vero E6 cells): no cytotoxicity was observed; also recorded: no toxic effect on the cells at all concentrations; IC50 relative to that of Camostat (times higher) (MERS-CoV; versus Camostat): 10 times; IC50 (MERS-CoV; read-out: IC50 (MERS-CoV infection in vitro)): 0.1 µM; Copy number of virus genome (SARS-CoV-2; 0.14 µM): 1169068894.5±28678551.13; Copy number of virus genome (SARS-CoV-2; 0.41 µM): 2051893138.5±1115069812.46; Copy number of virus genome (SARS-CoV-2; 1.23 µM): 2805092897.49±419609425.32; Copy number of virus genome (SARS-CoV-2; 3.70 µM): 3601892897.5±680084251.56; Copy number of virus genome (SARS-CoV-2; 11.11 µM): 2116737884±785155013.49; Copy number of virus genome (SARS-CoV-2; 33.33 µM): 1015568394.5±70116949.22; Copy number of virus genome (SARS-CoV-2; 100 µM, copies per milliliter per method): 395904281±285024470.56; Viral RNA load in the cells (in words) (SARS-CoV-2; 48 hours after infection by SARS-CoV-2, Vero E6 cells, FIG. 1(a)): can reduce the viral RNA load; Inhibition of replication of SARS-CoV-2 virus genome in the infected supernatant (in words) (SARS-CoV-2; concentrations of 100 µM, 33 µM, 11.1 µM and 3.7 µM): could effectively inhibit the replication of SARS-CoV-2 virus genome
